Measured values: patent US20240158446A1, “CYCLIC COMPOUND HAVING SELECTIVE INHIBITORY ACTION ON KRAS OVER HRAS AND NRAS” (CHUGAI SEIYAKU KABUSHIKI KAISHA, priority 2021, published 2024)

Columns and labels:
[1] = target: GDP-bound KRAS wild-type protein (Homo sapiens, UniProt P01116); assay: Binding to KRAS by surface plasmon resonance (SPR), Single Cycle Kinetics; details: SPR, Single Cycle Kinetics, 1:1 binding model; GDP-bound KRAS wild-type protein; read-out: KRAS KD
[2] = target: GDP-bound NRAS wild-type protein (Homo sapiens, UniProt P01111); assay: Binding to NRAS by surface plasmon resonance (SPR), Single Cycle Kinetics; details: SPR; GDP-bound NRAS wild-type protein vs GDP-bound KRAS wild-type protein; KD ratio class
[3] = target: GDP-bound HRAS wild-type protein (Homo sapiens, UniProt P01112); assay: Binding to HRAS by surface plasmon resonance (SPR), Single Cycle Kinetics; details: SPR; GDP-bound HRAS wild-type protein vs GDP-bound KRAS wild-type protein; KD ratio class
[4] = system: human lung cancer strain NCI-H441;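 further: cell proliferation inhibition after four days measured by CellTiter-Glo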

GDP-bound KRAS wild-type protein, sequence (P01116 whole entry): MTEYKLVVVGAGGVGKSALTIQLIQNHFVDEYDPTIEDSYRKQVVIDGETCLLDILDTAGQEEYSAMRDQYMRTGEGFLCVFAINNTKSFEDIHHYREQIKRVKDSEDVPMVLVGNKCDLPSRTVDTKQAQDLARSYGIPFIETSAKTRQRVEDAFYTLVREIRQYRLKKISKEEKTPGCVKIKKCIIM
GDP-bound HRAS wild-type protein, sequence (P01112 whole entry): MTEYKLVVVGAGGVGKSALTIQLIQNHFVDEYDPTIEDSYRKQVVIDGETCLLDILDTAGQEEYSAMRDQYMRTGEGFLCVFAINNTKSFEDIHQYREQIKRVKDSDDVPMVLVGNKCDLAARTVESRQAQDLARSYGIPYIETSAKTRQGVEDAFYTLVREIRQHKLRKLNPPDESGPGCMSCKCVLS
GDP-bound NRAS wild-type protein, sequence (P01111 whole entry): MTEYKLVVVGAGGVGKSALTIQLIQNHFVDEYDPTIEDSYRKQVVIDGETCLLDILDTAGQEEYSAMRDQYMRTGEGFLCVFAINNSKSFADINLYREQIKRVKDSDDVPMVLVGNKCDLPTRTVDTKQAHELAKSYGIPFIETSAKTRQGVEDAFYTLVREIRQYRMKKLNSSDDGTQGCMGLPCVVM

Row | Kd [1] | IC50 [4] | SMILES | NRAS/KRAS (ratio of KD value for NRAS to KD value for KRAS) [2] | HRAS/KRAS (ratio of KD value for HRAS to KD value for KRAS) [3]
1 | 0.39 nM | 156 nM | CCO[C@@H]1C[C@H]2C(=O)NC3(CCC3)C(=O)N(C)[C@@H](C3CCCC3)C(=O)N(C)[C@H](C(=O)N(C)C)CC(=O)N(C)[C@@H](CC)C(=O)N[C@@H]([C@@H](C)CC)C(=O)N(C)CC(=O)N(C)[C@H]3C/C=C\CCN(C3=O)[C@@H](Cc3ccc(C(F)(F)F)cc3)C(=O)N(C)CC(=O)N[C@@H](CCc3ccc4sccc4c3)C(=O)N2C1 [PP1255] | A (a compound having 10 or more and less than 20 is denoted as A) | A (a compound having 10 or more and less than 20 is denoted as A)
2 | 0.33 nM | 54.3 nM | CCO[C@@H]1C[C@H]2C(=O)NC3(CCC3)C(=O)N(C)[C@@H](C3CCCC3)C(=O)N(C)[C@H](C(=O)N(C)C)CC(=O)N(C)[C@@H](CC(C)C)C(=O)N[C@@H]([C@@H](C)CC)C(=O)N(C)CC(=O)N(C)[C@H]3C/C=C\CCN(C3=O)[C@@H](Cc3ccc(C(F)(F)F)cc3)C(=O)N(C)CC(=O)N[C@@H](CCc3ccc4sccc4c3)C(=O)N2C1 [PP1257] | A (a compound having 10 or more and less than 20 is denoted as A) | A (a compound having 10 or more and less than 20 is denoted as A)
3 | 0.44 nM | 76.8 nM | CCO[C@@H]1C[C@H]2C(=O)NC3(CCC3)C(=O)N(C)[C@@H](C3CCCC3)C(=O)N(C)[C@H](C(=O)N(C)C)CC(=O)N(C)[C@@H](CC3CCCC3)C(=O)N[C@@H]([C@@H](C)CC)C(=O)N(C)CC(=O)N(C)[C@H]3C/C=C\CCN(C3=O)[C@@H](Cc3ccc(C(F)(F)F)cc3)C(=O)N(C)CC(=O)N[C@@H](CCc3ccc4sccc4c3)C(=O)N2C1 [PP1261] | A (a compound having 10 or more and less than 20 is denoted as A) | A (a compound having 10 or more and less than 20 is denoted as A)
4 | 0.23 nM | 18.9 nM | CCO[C@@H]1C[C@H]2C(=O)NC3(CCC3)C(=O)N(C)[C@@H](C3CCCC3)C(=O)N(C)[C@H](C(=O)N(C)C)CC(=O)N(C)[C@@H](CC(C)C)C(=O)N[C@@H]([C@@H](C)CC)C(=O)N(C)CC(=O)N(C)[C@H]3C/C=C\CCN(C3=O)[C@@H](Cc3ccc(C(F)(F)F)cc3)C(=O)N(C)CC(=O)N[C@@H](CCc3cc(F)c(Cl)c(F)c3)C(=O)N2C1 [PP1263] | A (a compound having 10 or more and less than 20 is denoted as A) | A (a compound having 10 or more and less than 20 is denoted as A)
5 | 0.17 nM | 14.1 nM | CCO[C@@H]1C[C@H]2C(=O)NC3(CCC3)C(=O)N(C)[C@@H](C3CCCC3)C(=O)N(C)[C@H](C(=O)N(C)C)CC(=O)N(C)[C@@H](CC)C(=O)N[C@@H]([C@@H](C)CC)C(=O)N(C)CC(=O)N(C)[C@H]3C/C=C\CCN(C3=O)[C@@H](Cc3ccc(C(F)(F)F)cc3)C(=O)N(C)CC(=O)N[C@@H](CCc3ccc(C(F)(F)F)c(C)c3)C(=O)N2C1 [PP1265] | A (a compound having 10 or more and less than 20 is denoted as A) | B (a compound having 3 or more and less than 10 is denoted as B)
6 | 0.045 nM | 12.2 nM | CCOC[C@H]1C(=O)N[C@@H]([C@@H](C)CC)C(=O)N(C)CC(=O)N(C)[C@H]2C/C=C\CCN(C2=O)[C@@H](Cc2ccc(C(F)(F)F)cc2)C(=O)N(C)CC(=O)N[C@@H](CCc2cc(F)c(C(F)(F)F)c(F)c2)C(=O)N2C[C@H](OCC)C[C@H]2C(=O)NC2(CCC2)C(=O)N(C)[C@@H](C2CCCC2)C(=O)N(C)[C@H](C(=O)N(C)C)CC(=O)N1C [PP1266, (2S,8S,12R,14S,20S,23S,27S,30S,36S,38Z)-20-cyclopentyl-8-[2-[3,5-difluoro-4-(trifluoromethyl)phenyl]ethyl]-12-ethoxy-27-(ethoxymethyl)-N,N,4,19,22,26,32,35-octamethyl-30-[(1S)-1-methylpropyl]-3,6,9,15,18,21,25,28,31,34,42-undecaoxo-2-[[4-(trifluoromethyl)phenyl]methyl]spiro[1,4,7,10,16,19,22,26,29,32,35-undecazatricyclo[34.5.1.0^10,14]dotetracont-38-ene-17,1′-cyclobutane]-23-carboxamide] | A (a compound having 10 or more and less than 20 is denoted as A) | A (a compound having 10 or more and less than 20 is denoted as A)

More lines, now with the values behind:

Row | SMILES | Kd [1] | IC50 [4] | NRAS/KRAS (ratio of KD value for NRAS to KD value for KRAS) [2] | HRAS/KRAS (ratio of KD value for HRAS to KD value for KRAS) [3]
7 | CCO[C@@H]1C[C@H]2C(=O)NC3(CCC3)C(=O)N(C)[C@@H](C3CCCC3)C(=O)N(C)[C@H](C(=O)N(C)C)CC(=O)N(C)[C@@H](CC3CC3)C(=O)N[C@@H]([C@@H](C)CC)C(=O)N(C)CC(=O)N(C)[C@H]3C/C=C\CCN(C3=O)[C@@H](Cc3ccc(C(F)(F)F)cc3)C(=O)N(C)CC(=O)N[C@@H](CCc3ccc(Cl)c(Cl)c3)C(=O)N2C1 [PP1253, (2S,8S,12R,14S,20S,23S,27S,30S,36S,38Z)-20-cyclopentyl-27-(cyclopropylmethyl)-8-[2-(3,4-dichlorophenyl)ethyl]-12-ethoxy-N,N,4,19,22,26,32,35-octamethyl-30-[(1S)-1-methylpropyl]-3,6,9,15,18,21,25,28,31,34,42-undecaoxo-2-[[4-(trifluoromethyl)phenyl]methyl]spiro[1,4,7,10,16,19,22,26,29,32,35-undecazatricyclo[34.5.1.0^10,14]dotetracont-38-ene-17,1′-cyclobutane]-23-carboxamide] | 0.2 nM | 22.2 nM | A (a compound having 10 or more and less than 20 is denoted as A) | A (a compound having 10 or more and less than 20 is denoted as A)
8 | CCO[C@@H]1C[C@H]2C(=O)NC3(CCC3)C(=O)N(C)[C@@H](C3CCCC3)C(=O)N(C)[C@H](C(=O)N(C)C)CC(=O)N(C)[C@@H](CC3CCCC3)C(=O)N[C@@H]([C@@H](C)CC)C(=O)N(C)CC(=O)N(C)[C@H]3C/C=C\CCN(C3=O)[C@@H](Cc3ccc(C(F)(F)F)cc3)C(=O)N(C)CC(=O)N[C@@H](CCc3ccc(Cl)c(Cl)c3)C(=O)N2C1 [PP1254] | 0.2 nM | 28.3 nM | AA (a compound having 20 or more is denoted as AA) | A (a compound having 10 or more and less than 20 is denoted as A)
9 | CCC[C@H]1C(=O)N[C@@H]([C@@H](C)CC)C(=O)N(C)CC(=O)N(C)[C@H]2C/C=C\CCN(C2=O)[C@@H](Cc2ccc(C(F)(F)F)cc2)C(=O)N(C)CC(=O)N[C@@H](CCc2ccc3sccc3c2)C(=O)N2C[C@H](OCC)C[C@H]2C(=O)NC2(CCC2)C(=O)N(C)[C@@H](C2CCCC2)C(=O)N(C)[C@H](C(=O)N(C)C)CC(=O)N1C [PP1256] | 0.36 nM | 69 nM | A (a compound having 10 or more and less than 20 is denoted as A) | A (a compound having 10 or more and less than 20 is denoted as A)
10 | CCCCCC[C@H]1C(=O)N[C@@H]([C@@H](C)CC)C(=O)N(C)CC(=O)N(C)[C@H]2C/C=C\CCN(C2=O)[C@@H](Cc2ccc(C(F)(F)F)cc2)C(=O)N(C)CC(=O)N[C@@H](CCc2ccc3sccc3c2)C(=O)N2C[C@H](OCC)C[C@H]2C(=O)NC2(CCC2)C(=O)N(C)[C@@H](C2CCCC2)C(=O)N(C)[C@H](C(=O)N(C)C)CC(=O)N1C [PP1259] | 0.49 nM | 62 nM | A (a compound having 10 or more and less than 20 is denoted as A) | A (a compound having 10 or more and less than 20 is denoted as A)
11 | CCO[C@@H]1C[C@H]2C(=O)NC3(CCC3)C(=O)N(C)[C@@H](C3CCCC3)C(=O)N(C)[C@H](C(=O)N(C)C)CC(=O)N(C)[C@@H](CC3CC3)C(=O)N[C@@H]([C@@H](C)CC)C(=O)N(C)CC(=O)N(C)[C@H]3C/C=C\CCN(C3=O)[C@@H](Cc3ccc(C(F)(F)F)cc3)C(=O)N(C)CC(=O)N[C@@H](CCc3ccc4sccc4c3)C(=O)N2C1 [PP1260] | 0.37 nM | 60.4 nM | A (a compound having 10 or more and less than 20 is denoted as A) | A (a compound having 10 or more and less than 20 is denoted as A)
12 | CCO[C@@H]1C[C@H]2C(=O)NC3(CCC3)C(=O)N(C)[C@@H](C3CCCC3)C(=O)N(C)[C@H](C(=O)N(C)C)CC(=O)N(C)[C@@H](CC)C(=O)N[C@@H]([C@@H](C)CC)C(=O)N(C)CC(=O)N(C)[C@H]3C/C=C\CCN(C3=O)[C@@H](Cc3ccc(C(F)(F)F)cc3)C(=O)N(C)CC(=O)N[C@@H](CCc3cc(F)c(Cl)c(F)c3)C(=O)N2C1 [PP1262] | 0.24 nM | 56.7 nM | A (a compound having 10 or more and less than 20 is denoted as A) | B (a compound having 3 or more and less than 10 is denoted as B)
13 | CCO[C@@H]1C[C@H]2C(=O)NC3(CCC3)C(=O)N(C)[C@@H](C3CCCC3)C(=O)N(C)[C@H](C(=O)N(C)C)CC(=O)N(C)[C@@H](CC3CCCC3)C(=O)N[C@@H]([C@@H](C)CC)C(=O)N(C)CC(=O)N(C)[C@H]3C/C=C\CCN(C3=O)[C@@H](Cc3ccc(C(F)(F)F)cc3)C(=O)N(C)CC(=O)N[C@@H](CCc3cc(F)c(Cl)c(F)c3)C(=O)N2C1 [PP1264] | 0.37 nM | 15.9 nM | A (a compound having 10 or more and less than 20 is denoted as A) | B (a compound having 3 or more and less than 10 is denoted as B)
